Data as given in ChEMBL document CHEMBL1201862, “PubChem BioAssay data set” (2004).
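Protocol summary: plate cells (96-well), add compound at 5 concentrations, incubate 48 h, interpolate endpoints linearly. Here, GI50 denotes the concentration required for 50% inhibition of growth.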 The source made the active and inactive calls. Rule as the data show it: active = GI50 up to about 1.1 µM and inactive = higher.

Columns and labels:
Experiment in all cases: inhibition of tumour cell growth, NCI panel, 48 h
SNB-75 = tested on: SNB-75
OVCAR-8 = tested on: OVCAR-8
EKVX = tested on: EKVX
KM12 = tested on: KM12
SK-MEL-5 = tested on: SK-MEL-5
RPMI-8226 = tested on: RPMI-8226
A498 = tested on: A498
HCC 2998 = tested on: HCC 2998
NCI-H23 = tested on: NCI-H23
UACC-62 = tested on: UACC-62
HT-29 = tested on: HT-29
SK-MEL-28 = tested on: SK-MEL-28
NCI-H226 = tested on: NCI-H226
RXF 393 = tested on: RXF 393
SK-MEL-2 = tested on: SK-MEL-2
A549 = tested on: A549
HCT-15 = tested on: HCT-15
786-0 = tested on: 786-0
ACHN = tested on: ACHN
TK-10 = tested on: TK-10

Compound | GI50 (SNB-75) | GI50 (OVCAR-8) | GI50 (EKVX) | GI50 (KM12) | GI50 (SK-MEL-5) | GI50 (RPMI-8226) | GI50 (A498) | GI50 (HCC 2998) | GI50 (NCI-H23) | GI50 (UACC-62) | GI50 (HT-29) | GI50 (SK-MEL-28) | GI50 (NCI-H226) | GI50 (RXF 393) | GI50 (SK-MEL-2) | GI50 (A549) | GI50 (HCT-15) | GI50 (786-0) | GI50 (ACHN) | GI50 (TK-10)
Cc1nc2ccccc2c(=O)n1Nc1ccc(C(=O)O)cc1 | > 100 µM (inactive) | > 100 µM (inactive) | > 100 µM (inactive) | > 100 µM (inactive) | > 100 µM (inactive) | > 100 µM (inactive) | > 100 µM (inactive) | > 100 µM (inactive) | > 100 µM (inactive) | > 100 µM (inactive) | > 100 µM (inactive) | > 100 µM (inactive) | > 100 µM (inactive) | > 100 µM (inactive) | > 100 µM (inactive) | > 100 µM (inactive) | > 100 µM |  |  | 
NC(=O)c1c[se]c(C2OC(COP(=O)(O)CP(=O)(O)OCC3OC(n4cnc5c(N)ncnc54)C(O)C3O)C(O)C2O)n1 (stereo not given) | > 100 µM (inactive) | 87.9 µM (inactive) | > 100 µM (inactive) | 66.5 µM (inactive) | > 100 µM (inactive) |  | > 100 µM (inactive) |  | > 100 µM (inactive) |  | 53.2 µM (inactive) | > 100 µM (inactive) | > 100 µM (inactive) | > 100 µM (inactive) | > 100 µM (inactive) | 51.3 µM (inactive) |  | 63.1 µM (inactive) | 64.3 µM (inactive) | 
COc1cccc2c(Nc3ccc(S(=O)(=O)Nc4ncccn4)cc3)c3ccc([N+](=O)[O-])cc3nc12 |  |  | > 100 µM (inactive) | 12.5 µM (inactive) | 54.5 µM (inactive) | 8.67 µM (inactive) | > 100 µM (inactive) | 67 µM (inactive) | 72.1 µM (inactive) | 9.12 µM (inactive) | 57.4 µM (inactive) | > 100 µM (inactive) | 38.7 µM (inactive) | 60.8 µM (inactive) | 89.9 µM (inactive) | > 100 µM (inactive) | 24.7 µM | 23.6 µM (inactive) | 7.06 µM (inactive) | > 100 µM (inactive)
COc1ccc(Cc2nn(C3OC(COC(C)=O)C(OC(C)=O)C(OC(C)=O)C3OC(C)=O)c(=S)n(-c3ccc(OC)cc3)c2=O)cc1 (stereo not given) | 43.5 µM (inactive) | > 100 µM (inactive) | > 54.3 µM (inactive) | > 100 µM (inactive) | > 100 µM (inactive) | > 100 µM (inactive) | > 100 µM (inactive) | > 100 µM (inactive) | > 100 µM (inactive) | > 100 µM (inactive) | > 100 µM (inactive) | > 100 µM (inactive) | > 100 µM (inactive) | > 100 µM (inactive) | > 100 µM (inactive) | > 100 µM (inactive) | > 100 µM |  |  | 
Cc1ccc(S(=O)(=O)OC[C@@H]2CO2)cc1 | > 100 µM (inactive) | > 100 µM (inactive) | > 100 µM (inactive) | > 100 µM (inactive) | > 100 µM (inactive) |  | > 100 µM (inactive) | > 100 µM (inactive) | > 100 µM (inactive) |  | > 100 µM (inactive) | > 100 µM (inactive) | > 100 µM (inactive) | > 100 µM (inactive) | > 100 µM (inactive) | > 100 µM (inactive) | > 100 µM | > 100 µM (inactive) | > 100 µM (inactive) | 44.6 µM (inactive)
O=C1C(Br)=CC2([N+](=O)[O-])CCNC3=C(C4=NCCc5c[nH]c(c54)C3=O)C2=C1Br (stereo not given) | 8.39 µM (inactive) | 0.365 µM (active) | 2.33 µM (inactive) | 3.96 µM (inactive) | 0.589 µM (active) | 0.159 µM (active) | 5.06 µM (inactive) | 2.62 µM (inactive) | 1.39 µM (inactive) | 1.72 µM (inactive) | 0.553 µM (active) | 3.26 µM (inactive) | 2.38 µM (inactive) | 2.39 µM (inactive) | 1.65 µM (inactive) | 3 µM (inactive) | 0.796 µM |  |  | 
Cc1c2cnccc2c(C)c2c1c1ccccc1n2CC1CO1 (stereo not given) | 0.652 µM (active) | 0.443 µM (active) | 0.687 µM (active) | 1.58 µM (inactive) | 1.1 µM (active) | 0.883 µM (active) | 0.247 µM (active) | 1.18 µM (inactive) | 0.422 µM (active) | 1.63 µM (inactive) | 1.72 µM (inactive) | 1.71 µM (inactive) | 1.76 µM (inactive) | 0.427 µM (active) | 1.66 µM (inactive) | 1.51 µM (inactive) | 1.54 µM |  |  | 
CN1NC(c2ccc(Cl)cc2)=C(C#N)C(=O)CC1c1ccccc1 (stereo not given) | > 100 µM (inactive) |  |  | > 100 µM (inactive) | 72.9 µM (inactive) | > 100 µM (inactive) | > 100 µM (inactive) |  | > 100 µM (inactive) |  | > 100 µM (inactive) | > 100 µM (inactive) | > 10 µM (inactive) | > 100 µM (inactive) | > 100 µM (inactive) | > 100 µM (inactive) | > 100 µM | > 100 µM (inactive) | > 100 µM (inactive) | > 100 µM (inactive)
COc1cc(S(=O)(=O)Nc2ccc(-c3csc(N4C(=O)C(C)SC4c4cccs4)n3)cc2)ccc1Cl (stereo not given) |  | 32.4 µM (inactive) | 57.5 µM (inactive) | 0.931 µM (active) | 41.3 µM (inactive) | 24.1 µM (inactive) | > 100 µM (inactive) |  | 39.8 µM (inactive) | 89.3 µM (inactive) | 30.5 µM (inactive) | 23.8 µM (inactive) | 6.28 µM (inactive) | 11.1 µM (inactive) | 6.49 µM (inactive) |  | 37 µM | 34.6 µM (inactive) | > 100 µM (inactive) | 
CCOC(=O)Oc1cc2ccsc2c2c1c1ccccc1n2C(=O)OCC | 27.1 µM (inactive) | 87.7 µM (inactive) | 60.7 µM (inactive) | 49.9 µM (inactive) | 63.7 µM (inactive) | 82 µM (inactive) | 18.4 µM (inactive) |  | 52.5 µM (inactive) | 34.4 µM (inactive) | 69.5 µM (inactive) | > 100 µM (inactive) | 42.2 µM (inactive) | 22.2 µM (inactive) | 48.3 µM (inactive) | 48.9 µM (inactive) | 26.2 µM | 34.1 µM (inactive) | 28.3 µM (inactive) | 50 µM (inactive)
COC(=O)c1cccc(N[C@@H]2c3cc4c(cc3C(c3cc(OC)c(O)c(OC)c3)[C@H]3C(=O)OCC32)OCO4)c1 (stereo not given in full) | 1.87 µM (inactive) | 1.73 µM (inactive) | 4.03 µM (inactive) | 2.37 µM (inactive) | 1.11 µM (active) | 1.37 µM (inactive) | 0.635 µM (active) | 2.19 µM (inactive) | 0.63 µM (active) | 0.729 µM (active) | 1.69 µM (inactive) | 2.67 µM (inactive) | 0.662 µM (active) | 1.33 µM (inactive) | 4.69 µM (inactive) | 0.153 µM (active) | 1.08 µM |  |  | 
COc1cc(O)c2c(=O)cc(C3(O)C=CC(=O)C=C3)oc2c1 | 1.22 µM (inactive) | 0.0448 µM (active) | 1.36 µM (inactive) | 0.083 µM (active) | 0.0321 µM (active) |  | 4.05 µM (inactive) | 0.535 µM (active) | 0.664 µM (active) | 0.378 µM (active) | < 0.01 µM (active) | 0.199 µM (active) | 0.394 µM (active) | 3.44 µM (inactive) | 0.619 µM (active) |  | 0.0435 µM |  | < 0.045 µM (active) | 0.0658 µM (active)
COc1ccc(-c2cc(O)c3ccc(C)nc3n2)cc1 |  | > 100 µM (inactive) | > 100 µM (inactive) | > 100 µM (inactive) |  | 55.7 µM (inactive) | 65.6 µM (inactive) | > 100 µM (inactive) | > 100 µM (inactive) | 86.1 µM (inactive) | 81.5 µM (inactive) | > 100 µM (inactive) | > 100 µM (inactive) | > 100 µM (inactive) | > 100 µM (inactive) | > 100 µM (inactive) | > 100 µM |  | > 100 µM (inactive) | > 100 µM (inactive)
Nc1nc(O)c2ncn(C3C=CC(CO)O3)c2n1 (stereo not given) | > 100 µM (inactive) | > 100 µM (inactive) |  | > 100 µM (inactive) | > 100 µM (inactive) | > 100 µM (inactive) | > 100 µM (inactive) |  | > 100 µM (inactive) |  | > 100 µM (inactive) | > 100 µM (inactive) | > 100 µM (inactive) | > 100 µM (inactive) | > 100 µM (inactive) |  | > 100 µM |  |  | > 100 µM (inactive)
CC(C)[C@](O)(C(=O)OCC1=CCN2CC[C@@H](O)[C@@H]12)[C@H](C)O | > 375 µM (inactive) | > 375 µM (inactive) | > 375 µM (inactive) | > 375 µM (inactive) | > 80.7 µM (inactive) | > 375 µM (inactive) | > 375 µM (inactive) | > 375 µM (inactive) | > 375 µM (inactive) | > 375 µM (inactive) | > 375 µM (inactive) | > 375 µM (inactive) | > 375 µM (inactive) | > 375 µM (inactive) | > 375 µM (inactive) | > 375 µM (inactive) | > 375 µM |  |  | 
O=C(NC1CCN(Cc2ccccc2)CC1)c1cccc(I)c1 |  | 39.2 µM (inactive) | 45.2 µM (inactive) | 16.5 µM (inactive) | 16.9 µM (inactive) | 12.5 µM (inactive) | 46.6 µM (inactive) |  | 24 µM (inactive) | 20.5 µM (inactive) | 19.5 µM (inactive) | 18 µM (inactive) | 31.6 µM (inactive) | 51.8 µM (inactive) | 18.7 µM (inactive) | 31.9 µM (inactive) | 17.5 µM | 25.4 µM (inactive) | 52.4 µM (inactive) | 22.8 µM (inactive)
